Data on one sequence can be found in patent US20230212251A1, “PEPTIDES DERIVED FROM SORTILIN” (UNIVERSITE DE LIMOGES, priority 2019, published 2023).

Holding throughout (format): cell-based
The test system of one data set is cells. The experiment in a line: Cell penetration test via western blot. To be noted: 0 to 500 nM in complete culture medium, 24 hours' treatment. The procedure: 3. Extraction of the proteins under denaturing conditions Extraction of the whole proteins is carried out directly on the cell layers, after eliminating the supernatants and rinsing the cells in PBS 1×, or even on cell pellets previously stored at −80° C. It is carried out by incubating the cells with the Laemmli lysis buffer (62.5 mM Tris-HCl ref: 11814273001 ROCHE, pH 6.8, 2% SDS ref: L-4509, Sigma-Aldrich, 25% glycerol ref: G5516, Sigma-Aldrich) made up with 1% (v/v) protease inhibitor cocktail (ref: P8340-1ML, Sigma-Aldrich) and 1% (v/v) phosphatase inhibitor cocktail (ref: P0044-1ML, Sigma-Aldrich), in the proportions […] of buffer for 1.10^6 cells for 30 min over ice. In the case of extraction on the cell layer, a scraper (ref: 179693PK, Nunc, ThermoFisher) is used to collect the cells in the lysis buffer. Lysis is then completed by ultrasound parametered at 60 Hz, amplitude 2 s, for 1 minute (ref: SONIVCX-130-220, VWR). The lysates are then centrifuged at 17,000×g (ref: 75002442, Sorvall, ThermoFisher) for 20 min at 4° C., the supernatant containing the proteins is transferred to a sterile 1.5 mL tube (ref: 0030120086, Eppendorf), and the proteins are assayed by the Bradford method.
5. […] The concentration of the polyacrylamide gels varies from 8 to 15% as a function of the molecular weight of the proteins to be separated and analyzed. […]

The subject of the next data set is cell nuclei. The data set is described as follows: Subcellular distribution by indirect immunofluorescence. The settings on record: 2D and 3D confocal imaging. The procedure:
The cells are seeded on a 24-well plate on 14 mm diameter glass slides. After each treatment condition, the cells are fixed, either with the complete medium containing paraformaldehyde (PFA) at 3.7% for 20 min at 4° C., or with methanol at −20° C. for 5 min. With methanol the fixation is carried out by dehydration (denaturing of the proteins), while with the aldehydes (formaldehyde) the 3D structure of the protein is preserved (fixing by bridging). The phosphorylations are analyzed after fixing with PFA. After fixing, the cell layer is washed 3 times for 5 minutes with […] PBS. In the case of fixing with PFA, the cells are permeabilized with Triton X-100 at 0.1% in PBS for 10 min at 4° C., then washed again. With regard to fixing with methanol, this confers the advantage of fixing and permeabilizing the cells at the same time. […] Starting from the fixing stage, all the solutions are filtered beforehand over a 0.2 μm filter in order to eliminate the fluorescence artefacts and the background noise. […] Then, three washes of 5 min in PBS are carried out, before incubation of the secondary antibody coupled with an Alexa fluor 488® (green fluorescence) (Table 4) for 1 hour at ambient temperature in the PBS-BSA solution. […]

The test system of data set [1] is H3255 adenocarcinoma line (EGFR L858R). The experiment in a line: Pro-apoptotic effect, real-time IncuCyte Zoom imaging. The settings on record: H3255, peptide 1 μM, 96 hours real time. The method, then:
(§1) In order to study cell death by apoptosis, the cells are seeded at a concentration of 2000 cells per well in 100 μL of culture medium, in 96-well plates. 24 hours later, the cell medium is removed, then the cells are rinsed once with sterile PBS 1× before adding the culture medium containing the different treatments, including the peptide according to the invention at […], and the reagents necessary for analysis of cell death. These latter are: IncuCyte® Caspase-3/7 Green Reagent (ref: 4440; EssenBio) diluted to 1:1000 in the culture medium; IncuCyte® Annexin V Green Reagent (ref: 4642; EssenBio) diluted to 1:200 diluted in the culture medium. Image acquisition is then carried out by positioning the plates in the IncuCyte Zoom® system (Ref: EssenBio) for 96 hours. Four images per well are then obtained, in high definition, every two hours, with the ×10 objective and the phase-contrast and green channels. These acquisitions are carried out automatically and non-invasively. The data are processed automatically with the IncuCyte Zoom® Live-Cell Analysis System (ref: EssenBio).
(§2) The pro-apoptotic effect of the peptide of sequence SEQ ID NO 7 at the concentration of 1 μM was measured in real time using the IncuCyte Zoom® system for 96 hours on the A549 line, on human fibroblasts (non-cancerous cells), as well as on two lines of adenocarcinomas H3255 and H1975, respectively presenting mutations of EGFR that are sensitive (L858R) and resistant (L858R/T790M) to the tyrosine kinase activity receptor inhibitors (TKI) used in the clinic via activation of two markers of apoptosis, namely annexin V and caspases 3 and 7. […] In fact, the levels of expression of these markers are identical under the conditions treated with the peptide and the control conditions. The peptide could therefore have a specific toxicity to cancer cells.

For data set [2], the system named is H1975 adenocarcinoma line (EGFR L858R/T790M). The description is as above. The settings on record: H1975, peptide 1 μM, 96 hours real time. The method, then:
as §1, §2

Data set [3] relates to human fibroblasts (non-cancerous cells). The description is as above. To be noted: peptide 1 μM, 96 hours real time, versus control. The procedure: as §1, §2
In a further data set the test system is A549 line. Described as above. To be noted: A549, peptide 1 μM, 96 hours real time. The procedure: as §1, §2
The test system of the next data set is A549 cell line. The experiment in a line: Cell survival measured by XTT (Cell Proliferation Kit II). To be noted: XTT dehydrogenase activity, read-out: CI50 (concentration giving 50% inhibition of cell activity). The method, then: The antineoplastic effect of the synthetic peptide, comprising Tat and a V5 tag of sequence SEQ ID NO 7 was tested on the A549 cell line (adenocarcinoma line having no mutation on the EDFR). A concentration range (0 to 10 μM) of the synthetic peptide of sequence SEQ ID NO 7 according to the invention was incubated for 24, 48 and 72 hours in the cell medium and the dehydrogenase activity thereof (proxy for viability) was measured (Cell Proliferation Kit II (XTT)-Roche) at the end of each incubation, i.e. at 24, 48 and 72 hours. Analysis of the graph representing the activity as a function of the log of the synthetic peptide concentration made it possible to establish CI50 values corresponding to the concentrations for which the peptide results in 50% inhibition of cell activity. These latter are respectively equal to 1.42, 1.52 and 0.57 μM for incubation times of 24, 48 and 72 hours.

Where two headings read alike, the source gives them in different places.

Turning to “GRKKRRQRRRPPQVLIVKKYVCGGRFLVHRYSVLQQHAEANGVDGVDALDTASHTNKSGYHDDSDEDLLEGKPIPNPLLGLDST [SEQ ID NO 7]”, the “quantity of intracellular peptide detected in the cell lysate (anti-V5 western blot)” value with cells was “dose-dependent peptide penetration”. The “subcellular distribution of the peptide (anti-V5 immunofluorescence, DAPI)” value in the data set with cell nuclei is “punctiform nuclear distribution”. Moreover, the “level of annexin V (marker of apoptosis)” value (in data set [1]; in data set [2]; with A549 line) was “increase” in each case. The “level of caspases 3 and 7 (marker of apoptosis)” value (in data set [1]; in data set [2]; with A549 line) was “increase” each time. Also, the “activation of annexin V (marker of apoptosis)” value in data set [3] is “does not seem to lead to activation”. Moreover, in data set [3], the “activation of caspases 3 and 7 (marker of apoptosis)” value was “does not seem to lead to activation”. Besides, the IC50 in the data set with A549 cell line (A549, 24 hours incubation) was determined as 1420 nM; with A549 cell line (A549, 48 hours incubation), 1520 nM; with A549 cell line (A549, 72 hours incubation), 570 nM.
